38 compounds from ChEMBL document CHEMBL1126354, “Structural analysis of 2-aryl-1,3-dione compounds as inhibitors of 5-lipoxygenase” (Bioorg Med Chem Lett, 1992) can be followed below.

Holding throughout (assay type): cell-based
Test [1] has as its target T1, Polyunsaturated fatty acid 5-lipoxygenase (Rattus norvegicus, UniProt P12527).
T1 sequence (P12527 whole entry): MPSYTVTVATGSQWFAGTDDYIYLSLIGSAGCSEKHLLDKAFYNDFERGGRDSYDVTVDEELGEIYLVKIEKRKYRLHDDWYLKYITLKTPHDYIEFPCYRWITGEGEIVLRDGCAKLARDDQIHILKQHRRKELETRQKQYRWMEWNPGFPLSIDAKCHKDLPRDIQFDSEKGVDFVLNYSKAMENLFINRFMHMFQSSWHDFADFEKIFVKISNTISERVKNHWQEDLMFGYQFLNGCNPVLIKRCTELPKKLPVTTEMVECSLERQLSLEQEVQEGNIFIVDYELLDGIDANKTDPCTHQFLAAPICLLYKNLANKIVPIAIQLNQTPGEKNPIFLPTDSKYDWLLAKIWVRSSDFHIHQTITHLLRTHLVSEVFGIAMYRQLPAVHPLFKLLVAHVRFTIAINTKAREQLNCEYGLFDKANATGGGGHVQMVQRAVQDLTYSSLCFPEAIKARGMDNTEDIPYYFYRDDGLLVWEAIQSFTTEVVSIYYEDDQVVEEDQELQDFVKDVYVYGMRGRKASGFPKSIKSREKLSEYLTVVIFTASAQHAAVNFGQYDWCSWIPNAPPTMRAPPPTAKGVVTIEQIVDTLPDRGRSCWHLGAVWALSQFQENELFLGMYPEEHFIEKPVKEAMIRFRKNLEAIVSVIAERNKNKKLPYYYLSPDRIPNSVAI
Put plainly: In vitro for inhibition of 5-lipoxygenase activity in RBL-1 cells.

Test [2] has as its target T1, Polyunsaturated fatty acid 5-lipoxygenase. Put plainly: In vitro inhibition of 5-lipoxygenase activity in RBL-1 cells.
For test [3], the target named is T2, Polyunsaturated fatty acid 5-lipoxygenase (Rattus norvegicus) (UniProt P12527).
T2 sequence (whole entry): T1 sequence (P12527 whole entry)
The experiment in a line: The compound was evaluated in vitro for inhibition of 5-lipoxygenase activity in RBL-1 cells at 20 uM.

Test [4] has as its target T2, Polyunsaturated fatty acid 5-lipoxygenase (Rattus norvegicus). Put plainly: The compound was evaluated in vitro for inhibition of 5-lipoxygenase activity in RBL-1 cells at 100 uM.
The target of test [5] is T1, Polyunsaturated fatty acid 5-lipoxygenase. Put plainly: The compound was evaluated in vitro for inhibition of 5-lipoxygenase activity in RBL-1 cells; No significant inhibitory activity up to 30 uM.
For test [6], the target named is T2, Polyunsaturated fatty acid 5-lipoxygenase (Rattus norvegicus). The experiment in a line: The compound was evaluated in vitro for inhibition of 5-lipoxygenase activity in RBL-1 cells at 30 uM.
Test [7] concerns the target T1, Polyunsaturated fatty acid 5-lipoxygenase. The experiment in a line: The compound was evaluated in vitro for inhibition of 5-lipoxygenase activity in RBL-1 cells.

Turning to `O=C1c2ccccc2C(=O)C1(c1ccccc1)C1(c2ccccc2)C(=O)c2ccccc2C1=O`, the IC50 result in test [1] is recorded as “Not Active”.

As to `O=C(c1ccccc1)C(C(=O)c1ccccc1)c1ccccc1`, the IC50 entry in test [1] is “Not Active”.

For `O=C1c2ccccc2C(=O)C1(Sc1ccccc1)c1ccccc1`, in test [2], the midpoint of inhibition, the IC50, lay at 4.8 µM.

Regarding `COC1=C(c2ccccc2)C(=O)c2ccccc21`, the IC50 result in test [1] was “Not Active”.

`CSc1ccc(C2C(=O)c3ccccc3C2=O)cc1` had a half-maximal inhibitory concentration (IC50) in test [2] of 2.7 µM.

`O=C1c2ccccc2C(=O)C1(F)c1ccc2ccccc2c1` gave an IC50 in test [2] of 2 µM.

With `O=C1c2ccccc2C(=O)C1[N+](=O)[O-]`, the IC50 entry in test [1] is “Not Active”.

Compound `O=C1c2ccccc2-c2ccccc2C(=O)C1c1ccccc1` registered an inhibition in test [3] of 50%.

In test [2], `O=C1CCCCC(=O)C1c1ccccc1` showed a 50% inhibitory concentration (IC50) of 41 µM.

For `O=C1c2cccc3cccc(c23)C(=O)C1c1ccccc1`, the IC50 result in test [1] was “Not Active”.

In the case of `O=C1CC(=O)c2ccccc21`, in test [1], the IC50 result was “Not Active”.

Consider `CSC1(c2ccccc2)C(=O)c2ccccc2C1=O`, for which the IC50 in test [2] stood at 15 µM.

`O=C1CCCCCC(=O)C1c1ccccc1` gave an inhibition in test [4] of 45%.

Consider `O=C1c2ccccc2[C@@H](O)[C@H]1c1ccccc1`, for which the IC50 result in test [1] is “Not Active”.

In the case of `O=C1CCCC(=O)C1c1ccccc1`, the IC50 result in test [1] is on record as “Not Active”.

In test [2], `CN(C)c1ccc(C2C(=O)c3ccccc3C2=O)cc1` displayed an IC50 of 4.5 µM.

With `O=C(O)c1ccc(C2C(=O)c3ccccc3C2=O)cc1`, the IC50 result in test [5] is on record as “Not Active”.

On to `O=C1C(c2ccccc2)C(=O)C2CC=CCC12` (stereo not drawn), for which, in test [1], the IC50 result is given as “Not Active”.

For the compound `CCCCc1ccc(C2C(=O)c3ccccc3C2=O)cc1`, in test [2], the IC50 was found to be 1.7 µM.

As for `O=C1CCCCC(=O)C1c1ccc2c(c1)OCO2`, the IC50 in test [2] came out at 25 µM.

On to `O=C1c2ccccc2C(=O)C1(F)c1ccccc1`, for which half-maximal inhibition in test [2] (IC50) required 1.7 µM.

On to `CCCCc1ccc(C2C(=O)CCCCCC2=O)cc1`, for which, in test [2], the IC50 was 12 µM.

`O=C1c2ccc(Br)cc2C(=O)C1(F)c1ccccc1` (stereo not drawn) registered an IC50 in test [2] of 2.3 µM.

On to `O=C1CCC(=O)C1c1ccccc1`, for which the IC50 entry in test [1] is given as “Not Active”.

As to `O=C1C(c2ccccc2)=C(c2ccccc2)C(=O)C1c1ccccc1`, the inhibition in test [6] stood at 45%.

`O=C1c2ccccc2C(=O)C1c1ccc2ccccc2c1` yielded an IC50 in test [2] of 3.2 µM.

On to `C=CCC1C(=O)c2ccccc2C1=O`, for which the IC50 result in test [1] is “Not Active”.

`O=C1c2ccccc2C(=O)C1C1C(=O)c2ccccc2C1=O` came in with an IC50 in test [7] of 28 µM.

`O=C1c2ccccc2C(=O)N1c1ccccc1` [N-PHENYL-PHTHALIMIDE]: the IC50 result in test [1] is “Not Active”.

The compound `O=C1c2ccccc2C(=O)C1c1ccc(Cl)cc1` [CLORINDIONE] gave a half-maximal inhibitory concentration (IC50) in test [2] of 5 µM.

Take `O=C1C(=Cc2ccccc2)C(=O)c2ccccc21`: in test [1], the IC50 result is “Not Active”.

Turning to `O=C1c2ccccc2C(=O)C1c1cccc2ccccc12`, in test [6], the inhibition turned out to be 14%.

`COc1ccc(C2C(=O)c3ccccc3C2=O)cc1` [ANISINDIONE] displayed a half-inhibitory concentration (IC50) in test [2] of 9.1 µM.

Regarding `COc1ccc(C=C2C(=O)c3ccccc3C2=O)cc1`, in test [1], the IC50 result is “Not Active”.

In the case of `O=C1c2ccccc2C(=O)C1c1ccccc1` [PHENINDIONE], half-maximal inhibition in test [2] (IC50) was put at 15 µM.

With `CC(C)(C)c1cc(C2C(=O)c3ccccc3C2=O)cc(C(C)(C)C)c1`, half-maximal inhibition in test [2] (IC50) was put at 2.8 µM.

`O=C1c2ccccc2[C@H](O)[C@H]1c1ccccc1`: the IC50 result in test [1] is reported as “Not Active”.

Compound `O=C1c2ccccc2C(=O)C1c1ccc(F)cc1` [FLUINDIONE] returned an IC50 in test [2] of 9.6 µM.

By IC50 is commonly meant the concentration needed to halve the response being measured. The inhibition is the drop in the measured response relative to a control, in per cent. Low values mean a weak effect, high ones a strong effect.
